The results in this text go back to patent US20250163022A1, “PARP1 INHIBITORS” (Synnovation Therapeutics, Inc., priority 2021, published 2025).

This experiment concerns the target T1, PARP1 (Homo sapiens, UniProt P09874).
T1 construct: HeLa cells (wide-type with PARP1 gene) were purchased from ATCC; host or cells: HeLa (wild type)
Nature of the experiment: In-Cell Western measurement of PARylation in PARP1 WT and knockout cells. Format: cell-based. The following applies: HeLa cells (wide-type with PARP1 gene); hydrogen peroxide-induced PARylation; compounds 30 min, then 10 mM hydrogen peroxide 15 min; read-out: HeLa_WT_IC50. The method, boiled down:
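Wild-type and PARP1-knockout HEK-293T and HAP1 cells, plus HeLa, pretreated with compound 30 min, then stimulated with 10 mM hydrogen peroxide for 15 min. Methanol-fixed cells immunostained for PARylation and imaged by In-Cell Western with infrared secondary antibody; IC50 fitted from signal.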

T1 sequence (P09874 whole entry): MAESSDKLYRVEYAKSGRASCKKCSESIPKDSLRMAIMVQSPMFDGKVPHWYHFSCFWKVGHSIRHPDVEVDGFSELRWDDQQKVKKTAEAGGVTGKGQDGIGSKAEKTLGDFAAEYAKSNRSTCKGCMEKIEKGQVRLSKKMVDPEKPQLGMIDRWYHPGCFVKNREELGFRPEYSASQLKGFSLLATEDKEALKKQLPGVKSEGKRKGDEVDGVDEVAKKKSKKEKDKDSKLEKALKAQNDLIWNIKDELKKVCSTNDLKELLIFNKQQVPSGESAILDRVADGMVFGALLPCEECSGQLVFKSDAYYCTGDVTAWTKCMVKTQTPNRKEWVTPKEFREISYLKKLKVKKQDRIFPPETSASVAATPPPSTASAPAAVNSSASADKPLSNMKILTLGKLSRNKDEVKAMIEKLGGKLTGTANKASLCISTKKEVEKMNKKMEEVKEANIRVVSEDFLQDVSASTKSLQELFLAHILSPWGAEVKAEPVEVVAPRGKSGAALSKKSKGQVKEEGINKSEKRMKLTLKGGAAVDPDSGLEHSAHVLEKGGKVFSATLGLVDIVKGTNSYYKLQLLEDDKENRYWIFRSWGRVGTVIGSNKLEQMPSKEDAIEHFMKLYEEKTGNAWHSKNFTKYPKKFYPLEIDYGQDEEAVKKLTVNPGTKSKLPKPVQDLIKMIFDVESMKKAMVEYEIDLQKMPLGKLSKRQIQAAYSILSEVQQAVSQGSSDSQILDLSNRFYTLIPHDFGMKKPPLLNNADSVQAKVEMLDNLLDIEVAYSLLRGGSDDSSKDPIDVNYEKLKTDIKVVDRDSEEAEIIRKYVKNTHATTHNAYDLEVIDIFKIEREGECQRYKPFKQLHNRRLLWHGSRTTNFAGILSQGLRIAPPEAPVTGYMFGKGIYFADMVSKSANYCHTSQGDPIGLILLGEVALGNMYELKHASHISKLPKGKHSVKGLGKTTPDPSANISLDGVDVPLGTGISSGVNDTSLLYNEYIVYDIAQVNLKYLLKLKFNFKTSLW

For `CCN1C(=O)Nc2c(F)c(CN3CCN(c4ccc(C(=O)NC)nc4C)CC3)cc3nc(OC)nc1c23` [Compound I-50, 5-(4-((3-Ethyl-9-fluoro-5-methoxy-2-oxo-2,3-dihydro-1H-pyrimido[4,5,6-de]quinazolin-8-yl)methyl)piperazin-1-yl)-N,6-dimethylpicolinamide], the IC50 was at most 10 nM. As to `CCN1C(=O)Nc2c(F)c(CN3CCN(c4ccc(C(=O)NC)nc4C)CC3)cc3ncnc1c23` [Compound I-35, 5-(4-((3-ethyl-9-fluoro-2-oxo-2,3-dihydro-1H-pyrimido[4,5,6-de]quinazolin-8-yl)methyl)piperazin-1-yl)-N,6-dimethylpicolinamide], the IC50 was at most 10 nM. As for `CCN1C(=O)Nc2c(F)c(CN3CCN(c4ccc(C(=O)N[C@H]5[C@@H]6COC[C@@H]65)nc4C)CC3)cc3ncnc1c23` [Compound I-70, N-((1R,5S,6r)-3-oxabicyclo[3.1.0]hexan-6-yl)-5-(4-((3-ethyl-9-fluoro-2-oxo-2,3-dihydro-1H-pyrimido[4,5,6-de]quinazolin-8-yl)methyl)piperazin-1-yl)-6-methylpicolinamide], the IC50 was at most 10 nM.

With `CCn1c(=O)[nH]c2c(F)c(CN3CCN(c4ccc(C(=O)NC)nc4C)CC3)cc(CC#N)c2c1=O` [Compound I-42, 5-(4-((5-(Cyanomethyl)-3-ethyl-8-fluoro-2,4-dioxo-1,2,3,4-tetrahydroquinazolin-7-yl)methyl)piperazin-1-yl)-N,6-dimethylpicolinamide], the IC50 is at most 10 nM. In the case of `CCn1c(=O)[nH]c2cc(CN3CCN(c4ccc(C(=O)NC)nc4C)CC3)cc(F)c2c1=O` [Compound I-22, 5-(4-((3-ethyl-5-fluoro-2,4-dioxo-1,2,3,4-tetrahydroquinazolin-7-yl)methyl)piperazin-1-yl)-N,6-dimethylpicolinamide], the IC50 was at most 10 nM.

Turning to `CCn1c(=O)[nH]c2c(F)c(CN3CCN(c4ccc(C(=O)NC)nc4C)CC3)cc(C3CC3)c2c1=O` [Compound I-40, 5-(4-((5-Cyclopropyl-3-ethyl-8-fluoro-2,4-dioxo-1,2,3,4-tetrahydroquinazolin-7-yl)methyl)piperazin-1-yl)-N,6-dimethylpicolinamide], the IC50 is at most 10 nM.

As for `CCN1C(=O)Nc2c(F)c(CN3CCN(c4ccc(C(=O)NC5(CC#N)CC5)nc4C)CC3)cc3ncnc1c23` [Compound I-79, N-(1-(cyanomethyl)cyclopropyl)-5-(4-((3-ethyl-9-fluoro-2-oxo-2,3-dihydro-1H-pyrimido[4,5,6-de]quinazolin-8-yl)methyl)piperazin-1-yl)-6-methylpicolinamide], the IC50 was at most 10 nM. On to `CNC(=O)c1ccc(N2CCN(Cc3ccc4c(c3)[nH]c(=O)c3c4ccn3C)CC2)cn1` [Compound I-7, N-methyl-5-(4-((3-methyl-4-oxo-4,5-dihydro-3H-pyrrolo[2,3-c]quinolin-7-yl)methyl)piperazin-1-yl)picolinamide], for which the IC50 is at most 10 nM. For `CNC(=O)c1ccc(N2CCN(Cc3ncc4c5c(c(=O)[nH]c4c3F)CCC5)CC2)c(C)n1` [Compound I-25, 5-(4-((4-Fluoro-6-oxo-6,7,8,9-tetrahydro-5H-cyclopenta[c][1,6]naphthyridin-3-yl)methyl)piperazin-1-yl)-N,6-dimethylpicolinamide] the value was at most 10 nM; for `CCN1C(=O)Nc2c(F)c(CN3CCN(c4ccc(C(=O)N[C@@H]5CCN(C)C5)nc4C)CC3)cc3ncnc1c23` [Compound I-77, (R)-5-(4-((3-ethyl-9-fluoro-2-oxo-2,3-dihydro-1H-pyrimido[4,5,6-de]quinazolin-8-yl)methyl)piperazin-1-yl)-6-methyl-N-(1-methylpyrrolidin-3-yl)picolinamide], 10 to 100 nM.

In the case of `CCN1C(=O)Nc2c(F)c(CN3CCN(c4ccc(C(=O)N[C@H]5C[C@@H](C#N)C5)nc4C)CC3)cc3ncnc1c23` [Compound I-65, N-((1s,3s)-3-cyanocyclobutyl)-5-(4-((3-ethyl-9-fluoro-2-oxo-2,3-dihydro-1H-pyrimido[4,5,6-de]quinazolin-8-yl)methyl)piperazin-1-yl)-6-methylpicolinamide], the IC50 is at most 10 nM.

For `CCN1C(=O)Nc2cc(CN3CCN(c4ccc(C(=O)NC)nc4C)CC3)cc3cnnc1c23` [Compound I-45, 5-[4-[(12-Ethyl-11-oxo-2,3,10,12-tetrazatricyclo[7.3.1.05,13]trideca-1,3,5,7,9 (13)-pentaen-7-yl)methyl]piperazin-1-yl]-N,6-dimethyl-pyridine-2-carboxamide], the IC50 was at most 10 nM. For `CCN1C(=O)Nc2c(F)c(CN3CCN(c4ccc(C(=O)N[C@H]5C[C@H](C#N)C5)nc4C)CC3)cc3ncnc1c23` [Compound I-60, N-((1r,3r)-3-cyanocyclobutyl)-5-(4-((3-ethyl-9-fluoro-2-oxo-2,3-dihydro-1H-pyrimido[4,5,6-de]quinazolin-8-yl)methyl)piperazin-1-yl)-6-methylpicolinamide] the value was at most 10 nM.

Regarding `CNC(=O)c1ccc(N2CCN(Cc3cc4[nH]c(=O)c5c(c4cn3)CCC5)CC2)c(C)n1` [Compound I-30, N,6-dimethyl-5-(4-((6-oxo-6,7,8,9-tetrahydro-5H-cyclopenta[c][1,6]naphthyridin-3-yl)methyl)piperazin-1-yl)picolinamide], the IC50 is at most 10 nM. Consider `CCN1C(=O)Nc2c(F)c(CN3CCN(c4ccc(C(=O)NC5CC5)nc4C)CC3)cc3c(=O)n(C)nc1c23` [Compound I-80, N-cyclopropyl-5-(4-((9-ethyl-6-fluoro-2-methyl-3,8-dioxo-2,7,8,9-tetrahydro-3H-pyridazino[3,4,5-de]quinazolin-5-yl)methyl)piperazin-1-yl)-6-methylpicolinamide], for which the IC50 lay within 10 to 100 nM. For the compound `CCN1C(=O)Nc2cc(CN3CCN(c4ccc(C(=O)NC)nc4C(F)(F)F)CC3)cc3ncnc1c23` [Compound I-18, 5-(4-((3-Ethyl-2-oxo-2,3-dihydro-1H-pyrimido[4,5,6-de]quinazolin-8-yl)methyl)piperazin-1-yl)-N-methyl-6-(trifluoromethyl)picolinamide], the IC50 was at most 10 nM. For `CCN1C(=O)Nc2c(F)c(CN3CCN(c4ccc(C(=O)N[C@@H]5CCOC5)nc4C)CC3)cc3ncnc1c23` [Compound I-67, (R)-5-(4-((3-ethyl-9-fluoro-2-oxo-2,3-dihydro-1H-pyrimido[4,5,6-de]quinazolin-8-yl)methyl)piperazin-1-yl)-6-methyl-N-(tetrahydrofuran-3-yl)picolinamide] the value was at most 10 nM; for `CNC(=O)c1ccc(N2CCN(Cc3ccc4c(c3)NC(=O)C3CC43)CC2)cn1` (centres unmarked) [Compound I-3, N-Methyl-5-(4-((2-oxo-1a,2,3,7b-tetrahydro-1H-cyclopropa[c]quinolin-5-yl)methyl)piperazin-1-yl)picolinamide], 100 to 500 nM; for `CCN1C(=O)Nc2c(F)c(CN3CCN(c4ccc(C(=O)N[C@H]5CC[C@H](C#N)CC5)nc4C)CC3)cc3ncnc1c23` [Compound I-75, N-((1r,4r)-4-cyanocyclohexyl)-5-(4-((3-ethyl-9-fluoro-2-oxo-2,3-dihydro-1H-pyrimido[4,5,6-de]quinazolin-8-yl)methyl)piperazin-1-yl)-6-methylpicolinamide], 10 to 100 nM. Take `CCn1c(=O)[nH]c2c(F)c(CN3CCN(c4ccc(C(=O)NC)nc4C)CC3)cc(COC)c2c1=O` [Compound I-46, 5-(4-((3-Ethyl-8-fluoro-5-(methoxymethyl)-2,4-dioxo-1,2,3,4-tetrahydroquinazolin-7-yl)methyl)piperazin-1-yl)-N,6-dimethylpicolinamide]: the IC50 was at most 10 nM.
